Measured values published in US10052310B2, “Separase inhibitors and uses thereof” (Baylor College of Medicine, priority 2013, dated 2018).
“Also recorded” adds a separate entry of the source.

Experiments:
[1] = tested on: pediatric GBM tumor (#4687) orthotopic xenograft; assay: Survival analysis, orthotopic xenograft of pediatric GBM tumor; format: in vivo, SCID-beige mice; details: 10 mg/kg daily ip, 5 days a week, 4 weeks, n=6/group
Procedure: FIG. 10 provides data relating to separase overexpression in Pediatric glioblastoma (GBM) and the effect of Sepin-1 in inhibiting the growth of glioblastoma cells in vitro and in vivo. […] SCID-beige mice after two weeks of transplantation were treated at a dose of 10 mg/kg daily ip for 5 days a week for 4 weeks with either Sepin-1 or vehicle (n=6/group).

[2] = tested on: mice; assay: Repeated intraperitoneal dosing tolerability in mice; format: in vivo; details: 10 mg/kg intraperitoneal injection daily for six weeks, 12 mice
[3] = tested on: BCM-5471 triple-negative breast tumor xenograft; assay: Growth inhibition of patient-derived xenograft BCM-5471; format: in vivo, SCID-beige mice; details: 10 mg/kg intraperitoneal injection, three week treatment
Description: Patient-derived xenograft (PDX) lines MC1 (ER− PR− HER2−) (Proc Natl Acad Sci USA. 100, 2003, 3983-3988) and BCM-5471 (ER− PR− HER2−) (Cancer Res. 73, 2013, 4885-4897) were maintained as described (Cancer Res. 73, 2013, 4885-4897) by serial transplantation into SCID Beige immunocompromised host mice whose endogenous mammary epithelium was removed surgically (Cancer Res. 19, 1959, 515-20).
For treatment studies, MCF7 xenografts (ER+ PR+ HER2−) were generated by injection of one million cultured cells grown under standard in vitro conditions as previously described (Proc. Natl. Acad. Sci. U. S. A 105, 2008, 13033-13038). Donor tumors for PDX lines MC1 and BCM-5471 were divided into small fragments and retransplanted into the fat pat of recipient SCID Beige mice (5 mice per group). When the tumors reached approximately ˜200 mg, mice were treated with either vehicle or Sepin-1. Sepin-1 was injected at dose of 10 mg/kg daily for 5 days a week for 3 weeks. […] Vehicle injected mice served as controls. Size of the xenografts were measured every four days using calipers and tumor weight was estimated using the guidelines by NCI for xenograft evaluation (http://ncifrederick.cancer.gov/Lasp/Acuc/Frederick/Media/Documents/ACUC14.pdf). After 3 weeks treatment, the tumors were harvested and fixed in 10% Buffed Formalin Phosphate (Fisher Scientific, Pittsburgh, Pa.) overnight. […]

[4] = tested on: C57B6 mice; assay: Toxicity of Sepin-1 in mice, single intravenous dose; format: in vivo
Procedure: To investigate the toxicity in mice, Applicants injected Sepin-1 at a single dose in the range of 50-100 mg/kg body weight into C57B6 mice via tail vein.
Based on the above results, Applicants expanded this study to identify the Severely Toxic Dose (i.e., dose that causes death or irreversible severe toxicity, in 10% of rodents, STD10) using more mice injected at 75 to 90 mg/Kg range. A dose of 80 mg/Kg was estimated as STD10 for Sepin-1 in these mice.
To test Maximum Tolerated Dose (MTD) and No Observable Effect Level (NOEL) of Sepin-1, Applicants applied 200 μl Sepin-1 (diluted in PBS) one time at an acute dose range of 50 to 100 mg/kg body weight to 8-10 weeks old C57B6 mice (˜25 g) through intravenous tail vein injection (n=3/group). Except for the MTD dose, after Sepin-1 injection, the mice were returned to the cage and their reaction to the drug was monitored from one week to several months. Complete necropsy, blood chemistry and pathology of the Sepin-1 injected mice were carried out by the Comparative Pathology Laboratory at the Baylor College of Medicine.

[5] = target: T1, Separase (Homo sapiens, UniProt Q14674); assay: In vitro cleavage of Myc-Rad21 assay; format: biochemical; details: Sepin-1 50 μm; in vitro transcribed and translated Myc-Rad21
T1 construct: made in house; host or cells: 293T cells; released from IgG-Agarose by TEV protease
Procedure: Myc-Rad21 protein was prepared by using pCS2MT Rad21 plasmid ([…]) as the template and the TNT SP6 High-Yield Wheat Germ Protein Expression kit (Promega, Madison, Wis.). Myc-Rad21 protein was mixed with Separase with or without the presence of Sepin-1. The final concentration of Sepin-1 was 50 μM. The reaction mixture was incubated in a 37° C. water bath for 1 h. The cleavage of myc-Rad21 was immunoblotted with Rad21 pAb.

[6] = tested on: human cancer cell lines; assay: MTT assay, summary over all cell lines; format: cell-based; details: all cell lines of Table 1, 72 h, read-out: range of IC50 over the different cell lines
Procedure: Applicants used the MTT assay to test the inhibitory effect of Sepin-1 on the growth of a variety of human cancer cell lines, including leukemia, breast cancer and neuroblastoma.
The inhibitory effect of Sepin-1 on cell growth was assayed using the 3-(4,5-dimethylthiazol-2yl)-2,5-diphenyl-tetrazolium bromide (MTT) colorimetric dye reduction method (Cancer Chemother. Pharmacol., 2006, 58, 13-23). One hundred thirty-five μl of exponentially growing cancer cells were plated at a density of 0.4-1.0×10^5 cells/well in a 96-well microtiter plate. After 16 h, Sepin-1 at specified concentrations was added to each well. After 72 h of continuous drug exposure, 15 μl of 5 mg/ml MTT was added to each well and the plates were incubated for 4 h at 37° C. Medium was replaced with 150 μl of DMSO to solubilize the formazan, and the optical density (OD) was measured at 550 nm using a microplate spectrophotometer (Anthos Analytical, Durham, N.C., USA). Cell viability was calculated by subtracting the background OD of media alone from the OD of test wells, then dividing by the OD of the control (untreated) wells. Replicates of 3 wells were used for each drug concentration. The in vitro cytotoxicity assay was repeated once and the IC50 reported was the average of two independent experiments.

[7] = <80 mg/kg single dose via tail vein

T1 sequence (Q14674 whole entry): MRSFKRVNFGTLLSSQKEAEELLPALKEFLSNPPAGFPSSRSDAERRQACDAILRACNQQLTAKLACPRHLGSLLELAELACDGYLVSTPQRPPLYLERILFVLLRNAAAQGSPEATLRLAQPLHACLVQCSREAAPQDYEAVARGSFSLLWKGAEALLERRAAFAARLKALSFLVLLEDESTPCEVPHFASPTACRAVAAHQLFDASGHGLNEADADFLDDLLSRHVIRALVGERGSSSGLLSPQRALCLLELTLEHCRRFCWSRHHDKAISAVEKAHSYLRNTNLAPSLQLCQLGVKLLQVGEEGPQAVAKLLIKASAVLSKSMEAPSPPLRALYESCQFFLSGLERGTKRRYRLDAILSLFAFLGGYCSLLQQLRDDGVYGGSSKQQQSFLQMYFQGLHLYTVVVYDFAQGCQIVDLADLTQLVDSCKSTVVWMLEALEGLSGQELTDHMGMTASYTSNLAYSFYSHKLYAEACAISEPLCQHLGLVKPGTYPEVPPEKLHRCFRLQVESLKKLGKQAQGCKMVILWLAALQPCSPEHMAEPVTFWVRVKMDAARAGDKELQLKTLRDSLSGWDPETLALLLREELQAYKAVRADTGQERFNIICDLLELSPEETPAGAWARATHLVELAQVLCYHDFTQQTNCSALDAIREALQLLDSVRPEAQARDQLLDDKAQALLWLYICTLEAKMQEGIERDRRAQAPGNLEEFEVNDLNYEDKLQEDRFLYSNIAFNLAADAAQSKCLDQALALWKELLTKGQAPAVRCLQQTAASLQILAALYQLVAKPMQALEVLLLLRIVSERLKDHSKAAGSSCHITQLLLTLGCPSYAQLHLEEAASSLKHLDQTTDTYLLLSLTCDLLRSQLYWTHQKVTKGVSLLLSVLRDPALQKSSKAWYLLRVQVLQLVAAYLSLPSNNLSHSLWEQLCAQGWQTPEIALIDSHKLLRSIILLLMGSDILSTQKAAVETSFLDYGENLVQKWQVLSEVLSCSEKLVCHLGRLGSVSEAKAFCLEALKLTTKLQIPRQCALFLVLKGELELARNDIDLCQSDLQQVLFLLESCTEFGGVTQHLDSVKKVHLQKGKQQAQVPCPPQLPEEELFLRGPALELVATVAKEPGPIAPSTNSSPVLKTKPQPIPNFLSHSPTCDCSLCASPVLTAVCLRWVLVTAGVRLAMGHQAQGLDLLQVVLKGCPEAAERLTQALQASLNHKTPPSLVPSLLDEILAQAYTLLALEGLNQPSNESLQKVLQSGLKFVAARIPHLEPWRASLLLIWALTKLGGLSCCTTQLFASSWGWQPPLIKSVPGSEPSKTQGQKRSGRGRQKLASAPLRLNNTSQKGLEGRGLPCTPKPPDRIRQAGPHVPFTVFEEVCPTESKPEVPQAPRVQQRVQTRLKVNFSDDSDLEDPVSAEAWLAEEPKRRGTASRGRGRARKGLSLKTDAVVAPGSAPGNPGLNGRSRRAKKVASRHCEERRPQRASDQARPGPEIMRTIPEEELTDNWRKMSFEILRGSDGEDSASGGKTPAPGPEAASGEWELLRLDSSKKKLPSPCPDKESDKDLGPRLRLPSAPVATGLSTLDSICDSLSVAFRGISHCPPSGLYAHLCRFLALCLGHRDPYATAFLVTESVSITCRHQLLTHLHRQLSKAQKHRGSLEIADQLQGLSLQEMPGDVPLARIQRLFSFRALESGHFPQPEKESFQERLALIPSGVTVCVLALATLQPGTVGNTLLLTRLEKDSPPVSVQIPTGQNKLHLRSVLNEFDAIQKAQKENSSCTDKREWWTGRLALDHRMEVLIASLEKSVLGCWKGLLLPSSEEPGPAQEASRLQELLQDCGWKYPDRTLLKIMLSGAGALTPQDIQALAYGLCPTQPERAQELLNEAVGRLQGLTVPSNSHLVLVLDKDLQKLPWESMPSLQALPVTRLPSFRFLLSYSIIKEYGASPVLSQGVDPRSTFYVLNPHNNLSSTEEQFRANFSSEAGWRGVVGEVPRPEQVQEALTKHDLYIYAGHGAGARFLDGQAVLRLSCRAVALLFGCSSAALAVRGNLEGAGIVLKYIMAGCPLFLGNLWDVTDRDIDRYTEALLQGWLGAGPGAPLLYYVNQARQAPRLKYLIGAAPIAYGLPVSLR

## CC1(C)[N+]([O-])=c2ccc([N+](=O)[O-])cc2=[N+]1[O-] [Sepin-1, 2,2-dimethyl-5-nitro-2H-benzimidazole-1,3 dioxide]
[1]
  life span of treated mice: significant increase in the life span
[2]
  weight loss and adverse effects: no weight loss or apparent adverse effects
[3]
  growth of xenograft BCM-5471 versus vehicle: no significant difference in growth; also recorded: more sensitive to Sepin-1 than MC-1 tumors
[4]; 90 mg/kg single dose via tail vein
  time to death after injection: 30 to 90 min
[4]; [7]
  effect of dose <80 mg/kg: no apparent effect
  survival after injection: over 6 months
[4]; mice injected at 75 to 90 mg/Kg range
  Severely Toxic Dose in 10% of rodents (STD10): 80 mg/kg
[4]; mouse, in vivo
  histopathology of major organs: no significant lesions in major organs
[5]
  inhibition of Rad21 cleavage by activated Separase: could inhibit the Rad21 cleavage by activated Separase; also recorded: inhibits the cleavage of Separase substrate Rad21
[6]
  IC50: ≥ 1000 nM
